Assay: xn = mol fraction of the nth substance listed
Settings: Liquid, Other PVT measurement

CCCCn1cc[n+](C)c1.F[B-](F)(F)F [1-butyl-3-methylimidazolium tetrafluoroborate] + CC#N
mass density [kg/m3]
Settings	x1 = 0.1	x1 = 0.2	x1 = 0.3	x1 = 0.4	x1 = 0.5	x1 = 0.6	x1 = 0.6999	x1 = 0.7998	x1 = 0.8993	x1 = 1
313.15 K, 200 kPa	893	980	1040	1077	1105	1127	1146	1161	1175	1185
313.15 K, 600 kPa	894	981	1041	1078	1106	1127	1147	1162	1175	1186
313.15 K, 1000 kPa	895	982	1041	1078	1106	1128	1147	1162	1175	1186
313.15 K, 1400 kPa	895	982	1041	1079	1106	1128	1147	1162	1175	1186
313.15 K, 1800 kPa	895	983	1041	1079	1106	1128	1147	1163	1176	1187
313.15 K, 2000 kPa	896	983	1042	1079	1107	1129	1148	1163	1176	1187
353.15 K, 200 kPa	857	947	1008	1047	1076	1098	1118	1134	1148	1159
353.15 K, 600 kPa	858	948	1009	1047	1076	1099	1119	1134	1148	1160
353.15 K, 1000 kPa	858	948	1009	1048	1077	1099	1119	1134	1148	1160
353.15 K, 1400 kPa	858	948	1010	1048	1077	1100	1119	1134	1149	1160
353.15 K, 1800 kPa	859	949	1010	1049	1077	1100	1120	1134	1149	1161
353.15 K, 2000 kPa	859	949	1010	1049	1078	1100	1120	1135	1149	1161
393.15 K, 600 kPa	820	914	978	1018	1048	1072	1092	1108	1123	1135
393.15 K, 1000 kPa	821	915	978	1018	1048	1072	1092	1108	1123	1135
393.15 K, 1400 kPa	821	915	979	1019	1048	1073	1092	1108	1123	1135
393.15 K, 1800 kPa	822	915	979	1019	1049	1073	1093	1108	1123	1136
393.15 K, 2000 kPa	822	916	979	1019	1049	1073	1093	1108	1124	1136
433.15 K, 1000 kPa	781	881	947	989	1021	1045	1066	1082	1098	1112
433.15 K, 1400 kPa	782	882	948	990	1021	1045	1066	1082	1098	1112
433.15 K, 1800 kPa	783	882	948	990	1021	1046	1067	1083	1098	1113
433.15 K, 2000 kPa	783	882	949	990	1021	1046	1067	1083	1099	1113
473.15 K, 1800 kPa	741	847	917	960	993	1018	1040	1057	1072	1086
473.15 K, 2000 kPa	742	848	917	960	993	1019	1041	1057	1073	1087
